Patent US10278962B2, “Tricyclic analogues, preparation method and uses thereof” (SHANGHAI INSTITUTE OF MATERIA MEDICA, CHINESE ACADEMY OF …, priority 2015, dated 2019)

Experiments:
ACAT2 [1] = target: T1, ACAT2 (Homo sapiens (Human), UniProt O75908); assay: Inhibitory effect on ACAT2 activity, NBD22-fluorescent labeled sterol method in intact HepG2 cells; assay type: cell-based; details: for IC50: NBD22-fluorescent labeled sterol, 6 hours incubation; for inhibition rate % on ACAT2 activity: relative inhibition rate with Pyripyropene A (0.2 μM) as the 100% inhibition control
Protocol: An inhibition curve was plotted based on that different concentrations of compounds would cause the fluorescence intensity to change by inhibiting the synthesis of the ester containing NBD22-fluorescent labeled sterol, thereby IC50 was calculated.
HepG2 cells were cultured in a 96-well plate at a starting density of 1.5×10^4 cells per well for 24 hours. After the cholesterol mixture was well mixed, the cells were cultured for another 24 hours. Then NBD22-fluorescent labeled sterol at a final concentration of 0.5 μg/ml, and compounds at a final concentration gradient of 0, 0.008, 0.04, 0.2, 1 and 5 μM were added. Three wells were set for each concentration. After incubating for 6 hours, the fluorescence intensity was measured using a fluorescence analyzer (E488, A535). The fluorescence intensity values were plotted against different concentrations of the compounds and IC50 was obtained.

ACAT2 [2] = target: T1, ACAT2; assay: Cholesterol oxidase method for ACAT activity in HepG2 cells, ACAT2; assay type: cell-based; details: 10 μg/ml cholesterol, 9 hours
Protocol: HepG2 cells were used for testing the inhibitory effect of compounds at different concentrations on ACAT1 or ACAT2 activity, thereby obtaining IC50 to calculate SI(ACAT1-IC50/ACAT2-IC50).
HepG2 cells were cultured in a 6-well plate at a starting density of 4×10^5 cells per well for 24 hours, then the medium was replaced and 10 μg/ml of cholesterol and the compounds at different concentrations were added. The cells were cultured for another 9 hours and cholesterol amounts of the cells were measured with Cholesterol Assay kit.

T1 sequence (O75908 whole entry): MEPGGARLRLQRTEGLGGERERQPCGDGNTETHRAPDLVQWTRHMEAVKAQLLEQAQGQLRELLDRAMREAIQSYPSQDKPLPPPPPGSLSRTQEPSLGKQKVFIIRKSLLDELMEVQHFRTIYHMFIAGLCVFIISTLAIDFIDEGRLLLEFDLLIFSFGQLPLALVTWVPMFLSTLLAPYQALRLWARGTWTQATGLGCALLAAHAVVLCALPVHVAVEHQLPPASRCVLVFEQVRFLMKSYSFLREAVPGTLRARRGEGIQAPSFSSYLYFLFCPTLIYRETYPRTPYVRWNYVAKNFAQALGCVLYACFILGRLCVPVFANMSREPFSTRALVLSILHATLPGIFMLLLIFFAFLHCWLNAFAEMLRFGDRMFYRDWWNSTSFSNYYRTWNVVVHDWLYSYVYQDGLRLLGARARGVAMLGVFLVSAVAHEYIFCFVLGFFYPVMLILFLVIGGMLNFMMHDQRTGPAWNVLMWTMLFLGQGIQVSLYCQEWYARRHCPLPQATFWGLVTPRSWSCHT

SMILES	IC50 (ACAT2 [1]) [µM]	IC50 (ACAT2 [2]) [µM]	inhibition rate % on ACAT2 activity (ACAT2 [1]) [%]
CC(=O)OCC(C)(OC(C)=O)[C@@H]1C[C@H](OC(C)=O)[C@@]2(C)Oc3cc(-c4cccnc4)oc(=O)c3[C@@H](O)[C@@H]2C1 (stereo partly shown) [Compound 15]	0.831		
CC(O)(COC(=O)c1ccc(C#N)cc1)[C@@H]1C[C@H](OC(=O)c2ccc(C#N)cc2)[C@@]2(C)Oc3cc(-c4cccnc4)oc(=O)c3C(=O)[C@@H]2C1 (stereo partly shown) [Compound 13]	0.023	0.012	
CC(=O)OC[C@](C)(O)[C@H]1C[C@@H](O)[C@]2(C)Oc3cc(-c4cccnc4)oc(=O)c3[C@H](O)[C@H]2C1 [Compound 29]	0.081		
CC(=O)OCC(C)(OC(C)=O)[C@H]1CC2[C@@H](O)c3c(cc(-c4cccnc4)oc3=O)O[C@]2(C)[C@@H](OC(C)=O)C1 (stereo in doubt) [Compound 16]	0.245		
CC(=O)OCC(COC(C)=O)[C@@H]1C[C@H](OC(C)=O)[C@@]2(C)Oc3cc(-c4cccnc4)oc(=O)c3[C@@H](O)[C@@H]2C1 [Compound 6]			90
CC(=O)OC[C@](C)(OC(C)=O)[C@@H]1C[C@@H]2[C@H](O)c3c(cc(-c4cccnc4)oc3=O)O[C@@]2(C)[C@H](OC(C)=O)C1 [Compound 26]	0.433		
CC(=O)OCC(C)(OC(C)=O)[C@@H]1C[C@H](OC(=O)c2ccc(C#N)cc2)[C@@]2(C)Oc3cc(-c4cccnc4)oc(=O)c3[C@@H](OC(C)=O)[C@@H]2C1 (stereo partly shown) [Compound 8]	0.086	0.061	
CC(O)(COC(=O)c1ccc(C#N)cc1)[C@@H]1C[C@H](O)[C@@]2(C)Oc3cc(-c4cccnc4)oc(=O)c3C(=O)[C@@H]2C1 (stereo partly shown) [Compound 14]	0.103	0.129	
CC(=O)OCC(COC(C)=O)[C@@H]1C[C@H](OC(C)=O)[C@@]2(C)Oc3cc(-c4cccnc4)oc(=O)c3C(=O)[C@@H]2C1 [Compound 2]			104
CC(=O)OC[C@](C)(OC(C)=O)[C@H]1C[C@@H](OC(C)=O)[C@]2(C)Oc3cc(-c4cccnc4)oc(=O)c3[C@@H](O)[C@@H]2C1 [Compound 22]	0.086	0.09	
CC(=O)OCC(C)(OC(C)=O)[C@@H]1C[C@H](OC(C)=O)[C@@]2(C)Oc3cc(-c4cccnc4)oc(=O)c3C(=O)[C@@H]2C1 (stereo partly shown) [Compound 3]			90
CC(=O)OCC(C)(OC(C)=O)[C@@H]1C[C@H](OC(C)=O)[C@@]2(C)Oc3cc(-c4cccnc4)oc(=O)c3[C@@H](O)[C@@H]2C1 (stereo partly shown) [Compound 7]	0.152	0.147	
CC(=O)OC[C@](C)(OC(C)=O)[C@@H]1C[C@@H]2[C@@H](O)c3c(cc(-c4cccnc4)oc3=O)O[C@@]2(C)[C@H](OC(C)=O)C1 [Compound 21]	0.078	0.055	
